Experimental data from patent publication US20240131028A1, “CHEMOVACCINATION AGAINST PLASMODIUM INFECTION WITH SELECTIVE PLASMEPSIN X INHIBITORS” (Merck Sharp & Dohme LLC, priority 2021, published 2024).

Each molecule was assayed on ring stage parasites (Pf) (assay: Parasite lactate dehydrogenase (LDH) growth assay (Parasite Assay, PfLDH Assay)). Settings: Plasmodium falciparum, 72 h, Table 3; 72 hours growth, LDH readout; read-out: EC50.
Type: cell-based, P. falciparum

| Compound | EC50 |
| --- | --- |
| CCC1(CC)CC(=O)N([C@H](c2cccnc2)[C@@H]2[C@@H](C(=O)N[C@H]3CC(C)(C)Oc4ccccc43)C2(C)C)C(=N)N1 [Example 48A] | 2.7 nM |
| CC1(C)CC(=O)N(C[C@H]2C[C@@H]2C(=O)N[C@H]2CC(C)(C)Oc3cccc(Cl)c32)C(=N)N1 [Example 119] | 26 nM |
| CC1(C)CC(=O)N([C@H](c2cccnc2)[C@H]2C[C@@H]2C(=O)N[C@H]2CC(C)(C)Oc3cc(Cl)ccc32)C(=N)N1 [Example 91B] | 2.7 nM |
| COCC[C@H]([C@H]1C[C@@H]1C(=O)N[C@H]1C[C@@H](C(F)(F)F)Oc2ccccc21)N1C(=N)N[C@](C)(C(C)C)CC1=O [Example 21A] | 260 nM |
| COCC[C@H]([C@H]1C[C@@H]1C(=O)N[C@@H]1C[C@@H](C(F)(F)F)Oc2ccccc21)N1C(=N)N[C@](C)(C(C)C)CC1=O [Example 21B] | 1 nM |
| Cc1ccc2c(c1)OC(C)(C)C[C@@H]2NC(=O)[C@H]1C[C@@H]1[C@@H](c1cccnc1)N1C(=N)NC(C)(C)CC1=O [Example 85A] | 2.4 nM |
| CCC1(CC)CC(=O)N(C[C@H]2C[C@@H]2C(=O)N[C@H](C)c2ccccc2)C(=N)N1 [Example 3B] | 151 nM |
| Cc1ccc2c(c1)OC(C)(C)C[C@H]2NC(=O)[C@H]1C[C@@H]1[C@@H](c1cccnc1)N1C(=N)NC(C)(C)CC1=O [Example 85B] | 0.9 nM |
| CC1(C)CC(=O)N([C@H](c2cccnc2)[C@H]2C[C@@H]2C(=O)N[C@H]2C[C@H](C(F)(F)F)Oc3ccccc32)C(=N)N1 [Example 32] | 1.8 nM |
| CC1(C)CC(=O)N([C@H](c2cccnc2)[C@H]2C[C@@H]2C(=O)NC2CC(C)(C)Oc3c(Cl)cc(Cl)cc32)C(=N)N1 (some centres unmarked) [Example 94A] | 0.9 nM |

Same assay, conditions: Table 3; 72 hours growth, LDH readout; read-out: EC50

| Compound | EC50 |
| --- | --- |
| CCC1(CC)CC(=O)N(C[C@H]2C(C)[C@@H]2C(=O)N[C@@H]2c3ccccc3OCC2(C)O)C(=N)N1 (single isomer, unassigned) [Example 35B] | 220 nM |
| COCC[C@H]([C@H]1C[C@@H]1C(=O)NC1CC(C)(C)Oc2cc(OC(F)(F)F)ccc21)N1C(=N)NC(C)(C)CC1=O (single isomer, unassigned) [Example 134A] | 71 nM |
| CC(C)C1(C)CC(NC(=O)[C@H]2C[C@@H]2CN2C(=N)NC(C)(C)CC2=O)c2ccccc2O1 (single isomer, unassigned) [Example 79B] | 275 nM |
| CCC1(CC)CC(=O)N(C[C@H]2C(C)[C@@H]2C(=O)N[C@H]2CC(C)(C)Oc3ccccc32)C(=N)N1 (single isomer, unassigned) [Example 25B] | 25 nM |
| CC1[C@H](C(c2cccnc2)N2C(=N)NC(C)(C)CC2=O)[C@H]1C(=O)N[C@H]1C[C@H](C(F)(F)F)Oc2ccccc21 (single isomer, unassigned) [Example 54B] | 130 nM |
| CC1(C)CC(=O)N(C(c2cccc(C#N)c2)[C@H]2C[C@@H]2C(=O)NC2CC(C)(C)Oc3ccc(F)cc32)C(=N)N1 (some centres unmarked) [Example 53B] | 2.1 nM |
| CCC1(CC)CC(=O)N(C(c2cccnc2)[C@H]2C(C)[C@@H]2C(=O)N[C@H]2C[C@H](C(F)(F)F)Oc3ccccc32)C(=N)N1 (single isomer, unassigned) [Example 55A] | 0.8 nM |
| COCC[C@H]([C@H]1C[C@@H]1C(=O)NC1CC(C)(COC)Oc2ccccc21)N1C(=N)NC(C)(C)CC1=O (single isomer, unassigned) [Example 82D] | 27 nM |
| COCC1(C)CC(NC(=O)[C@H]2C[C@@H]2[C@@H](c2cccnc2)N2C(=N)NC(C)(C)CC2=O)c2ccccc2O1 (single isomer, unassigned) [Example 108C] | 6 nM |

Same assay, conditions: Table 4; 72 hours growth, LDH readout; read-out: EC50 (Table 4)

| Compound | EC50 |
| --- | --- |
| CCC1(CC)CC(=O)N([C@H](CCOC)[C@H]2C[C@@H]2C(=O)NC2CC(C)(C)Oc3cc(Cl)ccc32)C(=N)N1 (single isomer, unassigned) [Example 147A] | 2.8 nM |
